From patent US20100197584A1, “USE OF CURCUMIN TO BLOCK BRAIN TUMOR FORMATION IN MICE” (Research Foundations of the City University of- New York, priority 2007, published 2010)

Tested on: normal (non-tumor) brain cells
Assay: Normal brain cell viability (MTT on brain sections)
Assay type: in vivo
Details: brain sections of untreated mice treated with 1 mM in PBS for one hour; positive control for cell death (FIG. 10)
Experimental: In each experiment, three mice were injected with 200 μl of PBS containing 3% DMSO, and three mice were injected with 200 μl of 667 μM curcumin (as described earlier) through the tail vein on three consecutive days by the method described above. On the fourth day, the mice were perfused with PBS through the heart, and the brains sectioned into 400-μm sections. Similar brain sections were also made from untreated mice which were then treated with 1 mM H2O2 in PBS for one hour, followed by incubation in H2O2-free DTM for three hours. These samples were used as a positive control for cell death.
The sections from each mouse were placed in 400 μl PBS in one well of a 48-well plate (i.e. three wells for three mice) and then treated with 200 μl of MTT (5 mg/ml) per well with gentle mixing at 37° C. for about 2 hours. Subsequently, 800 μl of the lysis buffer was added to each well, and the plate was sealed and incubated overnight at 37° C. with gentle mixing. Three 100-μl portions of the tissue solution obtained were next transferred to three respective wells of a 96-well plate (i.e. three wells per mouse and nine wells for three mice in one group) and absorbance at 570 nm was measured using a 96-well multi scanner auto-reader. Results obtained were normalized to protein levels and then expressed as percent of carrier-treated samples.

## OO [H2O2, reference compound]
  cell viability in brain slices (MTT activity): dramatic decrease
